Among the data in the supplement of paper PMC10307832 are relative viability values, retold here.

Test in all cases: relative viability (nuclei count vs DMSO), 5 days (fraction); higher = more cells survive
Compound in the assay “Kobe2602 + Phenformin”: C1=CC(=CC=C1NC(=S)NNC2=C(C=C(C=C2[N+](=O)[O-])C(F)(F)F)[N+](=O)[O-])F [Kobe2602] + N=C(N)NC(=N)NCCc1ccccc1 [Phenformin] (partner 250 µM)
The method in brief: (§1)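 Lung cancer cell lines were pin-tool dosed in 1536-well plates on the day after seeding, with either a lone drug or a fixed anchor-drug dose plus five library-drug doses (not always all listed) in √10 steps. Nuclei were counted on 4× images after 5 days. Relative viability is the ratio of treated-well to vehicle-well nuclei counts, with each value a median of duplicate plates.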

Compound in assay [1]: COc1cc2nccc(Oc3ccc(NC(=O)C4(C(=O)Nc5ccc(F)cc5)CC4)cc3)c2cc1OC [Cabozantinib] + CC1(C)CCC(c2ccc(Cl)cc2)=C(CN2CCN(c3ccc(C(=O)NS(=O)(=O)c4ccc(N[C@H](CCN5CCOCC5)CSc5ccccc5)c(S(=O)(=O)C(F)(F)F)c4)cc3)CC2)C1 [Navitoclax] (partner 0.5 µM)
The method in brief:
as §1

Compound in the assay “Zosuquidar + Olaparib”: O[C@@H](COc1cccc2ncccc12)CN1CCN([C@@H]2c3ccccc3[C@@H]3[C@H](c4ccccc42)C3(F)F)CC1 [Zosuquidar] + O=C(c1cc(Cc2n[nH]c(=O)c3ccccc23)ccc1F)N1CCN(C(=O)C2CC2)CC1 [Olaparib] (partner 8 µM)
Put shortly: as §1

Compound in the assay “Zosuquidar + Pemetrexed”: O[C@@H](COc1cccc2ncccc12)CN1CCN([C@@H]2c3ccccc3[C@@H]3[C@H](c4ccccc42)C3(F)F)CC1 [Zosuquidar] + Nc1nc2[nH]cc(CCc3ccc(C(=O)N[C@@H](CCC(=O)O)C(=O)O)cc3)c2c(=O)[nH]1 [Pemetrexed] (partner 0.2 µM)
The method in brief:
as §1

With UMC-11, the relative viability with Kobe2602 + Phenformin (first compound 0.2 µM) was 0.358; in the assay with Kobe2602 + Phenformin (first compound 0.6325 µM) it was 0.336; with Kobe2602 + Phenformin (first compound 2 µM), 0.334; in the assay with Kobe2602 + Phenformin (first compound 6.325 µM), 0.335; with Kobe2602 + Phenformin (first compound 20 µM) it was 0.306; in assay [1] (first compound 0.02 µM), 0.298. For the same cell line, the relative viability in assay [1] (first compound 0.06325 µM) amounted to 0.332; in assay [1] (first compound 0.2 µM) it was 0.34; in assay [1] (first compound 0.6325 µM), 0.329; in assay [1] (first compound 2 µM), 0.297; with Zosuquidar + Olaparib (first compound 0.01 µM) it was 0.505; in the assay with Zosuquidar + Olaparib (first compound 0.03162 µM), 0.38. For the same cell line, the relative viability amounted to 0.413 in the assay with Zosuquidar + Olaparib (first compound 0.1 µM); 0.385 with Zosuquidar + Olaparib (first compound 0.3162 µM); 0.34 with Zosuquidar + Olaparib (first compound 1 µM); 0.739 with Zosuquidar + Pemetrexed (first compound 0.01 µM); 0.739 in the assay with Zosuquidar + Pemetrexed (first compound 0.03162 µM); 0.894 with Zosuquidar + Pemetrexed (first compound 0.1 µM). For the same cell line, the results for the relative viability with Zosuquidar + Pemetrexed (first compound 0.3162 µM) and with Zosuquidar + Pemetrexed (first compound 1 µM) were 0.858 and 0.86, respectively.
